Legend:
[1] = Text: With or without one or more of the following adjuvant cofactors given one to three times daily
I did Viome testing and must avoid some foods and take pre and pro biotics that they recommend.

[2] = test system: differentiated human derived cell lines; conditions: glial cells activated by LPS/IFNγ or IFNγ and treated with STS; cited from earlier work
[3] = test system: human microglia and astrocytes; conditions: cited from earlier work
[4] = corn and wheat samples; cited from earlier work
[5] = 2018 study, cited from earlier work
[6] = cited from earlier work

Row | SMILES | changes observed (patient questionnaire comment) ([1]; in combination with sporanox) | stimming reduced ([1]; on day 1, one patient's comment) | reduction in finger flicking and finger writing stimming ([1]; one patient's comment) | neuroprotection [2] | H2S and GSH expression [3] | levels of aflatoxins, ochratoxin A, and zearalenone [4] | toxicity of deoxynivalenol (DON) ([5]; Journal of Environmental Science and Health) | levels of oxidative stress and inflammation caused by DON exposure [5] | treatment for calciphylaxis ([6]; Ackermann et al. 2007) | treatment for vascular calcification ([6]; O'Neill 2008) | prevention of platinum-induced ototoxicity and nephrotoxicity ([6]; Skinner 1995)
1 | O=S([O-])([O-])=S.[Na+].[Na+] [STS, Sodium thiosulfate] | more aware and more present | 80-90% | 30 to 40% | significant enhancement of neuroprotection | increases | significantly reduce the levels | reduced the toxicity | able to reduce the levels of oxidative stress and inflammation | – | – | –
2 | O.O.O.O.O.O=S([O-])([O-])=S.[Na+].[Na+] [sodium thiosulfate pentahydrate] | – | – | – | – | – | – | – | – | effective treatment for calciphylaxis | effective treatment for vascular calcification | effective treatment to prevent platinum-induced ototoxicity and nephrotoxicity
